This note sets out measurements from patent publication US20230093861A1, “RAPAMYCIN ANALOGS AS MTOR INHIBITORS” (Revolution Medicines, Inc., priority 2017, published 2023).

One test concerns P-4E-BP1 (T37/46). As to the kind of experiment: Cell based AlphaLISA assay, inhibition of P-4E-BP1 (T37/46) (mTORC1 substrate phosphorylation) in MDA-MB-468 cells. As to conditions: Homo sapiens, AlphaLISA, two to four hours at 37° C., read-out: pIC50 for Inhibition of mTORC1 and mTORC2 Substrate Phosphorylation, P-4E-BP1-(T37/46) (converted). In outline:
(§1)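 After treatment, cells were lysed in the kit's buffer once assay medium was withdrawn. Duplicate Alpha measurements tracked each phospho-epitope, and dose-response data were fitted to IC50 following normalization to control wells.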
(In general: Bead proximity is the source of the signal in Alpha formats.)

A further test deals with P-P70S6K (T389). As to the kind of experiment: Cell based AlphaLISA assay, inhibition of P-P70S6K (T389) (mTORC1 substrate phosphorylation) in MDA-MB-468 cells. As to conditions: Homo sapiens, 4 h, AlphaLISA, two to four hours at 37° C., read-out: pIC50 for Inhibition of mTORC1 and mTORC2 Substrate Phosphorylation, P-P70S6K-(T389) (converted). In outline: as §1
For another test, the system named is P-Akt (S473). Description: Cell based AlphaLISA assay, inhibition of P-Akt (S473) (mTORC2 substrate phosphorylation) in MDA-MB-468 cells. The following applies: Homo sapiens, AlphaLISA, two to four hours at 37° C., read-out: pIC50 for Inhibition of mTORC1 and mTORC2 Substrate Phosphorylation, p-AKT 1/2/3 -(S473) (converted). In a few lines:
as §1

The structures appear in SMILES notation. Like-named read-outs stand apart in the source and are kept apart here. Bounds are passed on as bounds.

`CO[C@H]1C[C@@H]2CC[C@@H](C)[C@@](O)(O2)C(=O)C(=O)N2CCCC[C@H]2C(=O)O[C@H]([C@H](C)C[C@@H]2CC[C@@H](OCCCCc3cn(CCOCCOCCOCCOCCOCCOCCC(=O)N4CCC(Cn5nc(-c6ccc7oc(N)nc7c6)c6c(N)ncnc65)CC4)nn3)[C@H](OC)C2)CC(=O)[C@H](C)/C=C(\C)[C@@H](O)[C@@H](OC)C(=O)[C@H](C)C[C@H](C)/C=C/C=C/C=C/1C` [Example 91]: the IC50 in the test with P-4E-BP1 (T37/46) (MDA-MB-468, 4 h) is below 3.16 nM; with P-P70S6K (T389) it was below 1 nM; in the test on P-Akt (S473) (MDA-MB-468, 4 h), below 3.16 nM.

Regarding `CO[C@H]1C[C@@H]2CC[C@@H](C)[C@@](O)(O2)C(=O)C(=O)N2CCCC[C@H]2C(=O)O[C@H]([C@H](C)C[C@@H]2CC[C@H](n3cc(CCCC(=O)NCCOCCOCCOCCC(=O)NCCOCCOCCC(=O)NCCCCn4nc(-c5cc6cc(O)ccc6[nH]5)c5c(N)ncnc54)nn3)[C@H](OC)C2)CC(=O)[C@H](C)/C=C(\C)[C@@H](O)[C@@H](OC)C(=O)[C@H](C)C[C@H](C)/C=C/C=C/C=C/1C` [Example 129], the IC50 in the test on P-4E-BP1 (T37/46) (MDA-MB-468, 4 h) was 31.6 to 1000 nM; in the test on P-P70S6K (T389), 1 to 10 nM; with P-Akt (S473) (MDA-MB-468, 4 h), above 1000 nM.

In the case of `CO[C@H]1C[C@@H]2CC[C@@H](C)[C@@](O)(O2)C(=O)C(=O)N2CCCC[C@H]2C(=O)O[C@H]([C@H](C)C[C@@H]2CC[C@@H](OCCOCc3cn(CCOCCOCCOCCOCCOCCOCCC(=O)NCCCCn4nc(-c5ccc6oc(N)nc6c5)c5c(N(C)C)ncnc54)nn3)[C@H](OC)C2)CC(=O)[C@H](C)/C=C(\C)[C@@H](O)[C@@H](OC)C(=O)[C@H](C)C[C@H](C)/C=C/C=C/C=C/1C` [Example 10], the IC50 in the test on P-4E-BP1 (T37/46) (MDA-MB-468, 4 h) was above 1000 nM; in the test on P-P70S6K (T389), below 1 nM; in the test on P-Akt (S473) (MDA-MB-468, 4 h), above 1000 nM.

Consider `CO[C@H]1C[C@@H]2CC[C@@H](C)[C@@](O)(O2)C(=O)C(=O)N2CCCC[C@H]2C(=O)O[C@H]([C@H](C)C[C@@H]2CC[C@@H](OCCOCc3cn(CCOCCOCCOCCOCCOCCOCCOCCOCCC(=O)NCCCCn4nc(-c5cc6cc(O)ccc6[nH]5)c5c(N)ncnc54)nn3)[C@H](OC)C2)CC(=O)[C@H](C)/C=C(\C)[C@@H](O)[C@@H](OC)C(=O)[C@H](C)C[C@H](C)/C=C/C=C/C=C/1C` [Example 53], for which the IC50 in the test with P-4E-BP1 (T37/46) (4 h) was below 3.16 nM; in the test on P-P70S6K (T389) it was below 1 nM; in the test on P-Akt (S473) (4 h) it was 3.16 to 31.6 nM.

With `CO[C@H]1C[C@@H]2CC[C@@H](C)[C@@](O)(O2)C(=O)C(=O)N2CCCC[C@H]2C(=O)O[C@H]([C@H](C)C[C@@H]2CC[C@@H](OCCCCc3cn(CCOCCOCCOCCOCCNC(=O)CCCCC(=O)NCCCCn4nc(-c5ccc6oc(N)nc6c5)c5c(N)ncnc54)nn3)[C@H](OC)C2)CC(=O)[C@H](C)/C=C(\C)[C@@H](O)[C@@H](OC)C(=O)[C@H](C)C[C@H](C)/C=C/C=C/C=C/1C` [Example 103], the IC50 in the test with P-4E-BP1 (T37/46) (MDA-MB-468, 4 h) was below 3.16 nM; with P-P70S6K (T389) it was below 1 nM; in the test with P-Akt (S473) (MDA-MB-468, 4 h) it was 3.16 to 31.6 nM.

For `CO/N=C1/C[C@@H]([C@H](C)C[C@@H]2CC[C@H](n3cc(COC(=O)NCCOCCOCCOCCC(=O)NCCOCCOCCOCCC(=O)NCCCCn4nc(-c5ccc6oc(N)nc6c5)c5c(N)ncnc54)nn3)[C@H](OC)C2)OC(=O)[C@@H]2CCCCN2C(=O)C(=O)[C@]2(O)O[C@@H](CC[C@H]2C)C[C@H](OC)/C(C)=C/C=C/C=C/[C@@H](C)C[C@@H](C)C(=O)[C@H](OC)[C@H](O)/C(C)=C/[C@H]1C` [Example 153], the IC50 in the test on P-4E-BP1 (T37/46) (MDA-MB-468, 4 h) is 31.6 to 1000 nM; in the test on P-P70S6K (T389), 1 to 10 nM; in the test with P-Akt (S473) (MDA-MB-468, 4 h), above 1000 nM.

Take `CO[C@H]1C[C@@H]2CC[C@@H](C)[C@@](O)(O2)C(=O)C(=O)N2CCCC[C@H]2C(=O)O[C@H]([C@H](C)C[C@@H]2CC[C@H](n3cc(-c4cnc(N5CCN(c6ncc(C(=O)NCCOCCOCCOCCC(=O)NCCCCn7nc(-c8ccc9oc(N)nc9c8)c8c(N)ncnc87)cn6)CC5)nc4)nn3)[C@H](OC)C2)CC(=O)[C@H](C)/C=C(\C)[C@@H](O)[C@@H](OC)C(=O)[C@H](C)C[C@H](C)/C=C/C=C/C=C/1C` [Example 113]: the IC50 in the test on P-4E-BP1 (T37/46) (MDA-MB-468, 4 h) was below 3.16 nM; in the test with P-P70S6K (T389), below 1 nM; in the test with P-Akt (S473) (MDA-MB-468, 4 h), 3.16 to 31.6 nM.

With `CO[C@H]1C[C@@H]2CC[C@@H](C)[C@@](O)(O2)C(=O)C(=O)N2CCCC[C@H]2C(=O)O[C@H]([C@H](C)C[C@@H]2CC[C@H](n3nncc3-c3cccc(-c4cnc(N5CCN(S(=O)(=O)CCc6cn(CCOCCOCCOCCOCC(=O)NCCCCn7nc(-c8ccc9oc(N)nc9c8)c8c(N)ncnc87)nn6)CC5)nc4)c3)[C@H](OC)C2)CC(=O)[C@H](C)/C=C(\C)[C@@H](O)[C@@H](OC)C(=O)[C@H](C)C[C@H](C)/C=C/C=C/C=C/1C` [Example 37], the IC50 with P-4E-BP1 (T37/46) (MDA-MB-468, 4 h) is below 3.16 nM; in the test on P-P70S6K (T389), below 1 nM; with P-Akt (S473) (MDA-MB-468, 4 h) it was 3.16 to 31.6 nM.

`CO[C@H]1C[C@@H]2CC[C@@H](C)[C@@](O)(O2)C(=O)C(=O)N2CCCC[C@H]2C(=O)O[C@H]([C@H](C)C[C@@H]2CC[C@H](n3nncc3-c3cccc(-c4cnc(N5CCN(Cc6cn(CCOCCOCCOCCC(=O)NCCCCn7nc(-c8ccc9oc(N)nc9c8)c8c(N)ncnc87)nn6)CC5)nc4)c3)[C@H](OC)C2)CC(=O)[C@H](C)/C=C(\C)[C@@H](O)[C@@H](OC)C(=O)[C@H](C)C[C@H](C)/C=C/C=C/C=C/1C` [Example 31]: the IC50 with P-4E-BP1 (T37/46) (MDA-MB-468, 4 h) is below 3.16 nM; in the test with P-P70S6K (T389) it was below 1 nM; in the test on P-Akt (S473) (MDA-MB-468, 4 h), 3.16 to 31.6 nM.

In the case of `CO[C@H]1C[C@@H]2CC[C@@H](C)[C@@](O)(O2)C(=O)C(=O)N2CCCC[C@H]2C(=O)O[C@H]([C@H](C)C[C@@H]2CC[C@H](n3cc(CCCC(=O)NCCOCCOCCOCCC(=O)NCCOCCOCCOCCC(=O)NCCCCn4nc(-c5ccc6oc(N)nc6c5)c5c(N)ncnc54)nn3)[C@H](OC)C2)CC(=O)[C@H](C)/C=C(\C)[C@@H](O)[C@@H](OC)C(=O)[C@H](C)C[C@H](C)/C=C/C=C/C=C/1C` [Example 130], the IC50 was 3.16 to 31.6 nM in the test with P-4E-BP1 (T37/46) (MDA-MB-468, 4 h); 1 to 10 nM in the test on P-P70S6K (T389); 3.16 to 31.6 nM in the test on P-Akt (S473) (MDA-MB-468, 4 h).

On to `CO[C@H]1C[C@@H]2CC[C@@H](C)[C@@](O)(O2)C(=O)C(=O)N2CCCC[C@H]2C(=O)O[C@H]([C@H](C)C[C@@H]2CC[C@@H](OCCCCc3cn(CCOCCOCCOCCOCCOCCOCCOCCOCCC(=O)NCCCCn4nc(I)c5c(N)ncnc54)nn3)[C@H](OC)C2)CC(=O)[C@H](C)/C=C(\C)[C@@H](O)[C@@H](OC)C(=O)[C@H](C)C[C@H](C)/C=C/C=C/C=C/1C` [Example 4], for which the IC50 was above 1000 nM with P-4E-BP1 (T37/46) (MDA-MB-468, 4 h); below 1 nM with P-P70S6K (T389); above 1000 nM in the test with P-Akt (S473) (MDA-MB-468, 4 h).

Turning to `CO[C@H]1C[C@@H]2CC[C@@H](C)[C@@](O)(O2)C(=O)C(=O)N2CCCC[C@H]2C(=O)O[C@H]([C@H](C)C[C@@H]2CC[C@H](n3cc(COC(=O)NCCOCCOCCOCCC(=O)NCc4cnc(N5CCN(c6ncc(C(=O)NCCCCn7nc(-c8cc9cc(O)ccc9[nH]8)c8c(N)ncnc87)cn6)CC5)nc4)nn3)[C@H](OC)C2)CC(=O)[C@H](C)/C=C(\C)[C@@H](O)[C@@H](OC)C(=O)[C@H](C)C[C@H](C)/C=C/C=C/C=C/1C` [Example 184], the IC50 in the test with P-4E-BP1 (T37/46) (MDA-MB-468, 4 h) was below 3.16 nM; with P-P70S6K (T389), below 1 nM; in the test on P-Akt (S473) (MDA-MB-468, 4 h) it was 3.16 to 31.6 nM.

As for `CO[C@H]1C[C@@H]2CC[C@@H](C)[C@@](O)(O2)C(=O)C(=O)N2CCCC[C@H]2C(=O)O[C@H]([C@H](C)C[C@@H]2CC[C@@H](O)[C@H](OC)C2)C[C@@H](OC)[C@H](C)/C=C(\C)[C@@H](O)[C@@H](OC)/C(=N/OCc2cn(CCOCCOCCOCCOCCOCCOCCC(=O)NCCCCn3nc(-c4ccc5oc(N)nc5c4)c4c(N)ncnc43)nn2)[C@H](C)C[C@H](C)/C=C/C=C/C=C/1C` [Example 14], the IC50 is 3.16 to 31.6 nM in the test with P-4E-BP1 (T37/46) (MDA-MB-468, 4 h); 1 to 10 nM in the test with P-P70S6K (T389); 31.6 to 1000 nM in the test with P-Akt (S473) (MDA-MB-468, 4 h).

For `CO[C@H]1C[C@@H]2CC[C@@H](C)[C@@](O)(O2)C(=O)C(=O)N2CCCC[C@H]2C(=O)O[C@H]([C@H](C)C[C@@H]2CC[C@@H](OCc3cccc(-c4cnc(N5CCN(Cc6cn(CCOCCOCCOCCOCCC(=O)NCCCCn7nc(-c8ccc9oc(N)nc9c8)c8c(N)ncnc87)nn6)CC5)nc4)c3)[C@H](OC)C2)CC(=O)[C@H](C)/C=C(\C)[C@@H](O)[C@@H](OC)C(=O)[C@H](C)C[C@H](C)/C=C/C=C/C=C/1C` [Example 21], the IC50 in the test with P-4E-BP1 (T37/46) (MDA-MB-468, 4 h) was below 3.16 nM; in the test on P-P70S6K (T389), below 1 nM; in the test on P-Akt (S473) (MDA-MB-468, 4 h), 3.16 to 31.6 nM.

Consider `CO[C@H]1C[C@@H]2CC[C@@H](C)[C@@](O)(O2)C(=O)C(=O)N2CCCC[C@H]2C(=O)O[C@H]([C@H](C)C[C@@H]2CC[C@@H](O)[C@H](OC)C2)C[C@@H](OC)[C@H](C)/C=C(\C)[C@@H](O)[C@@H](OC)/C(=N\OCc2cn(CCOCCOCCOCCOCCOCCOCCC(=O)NCCCCn3nc(-c4ccc5oc(N)nc5c4)c4c(N)ncnc43)nn2)[C@H](C)C[C@H](C)/C=C/C=C/C=C/1C` [Example 15], for which the IC50 was 3.16 to 31.6 nM in the test on P-4E-BP1 (T37/46) (MDA-MB-468, 4 h); 1 to 10 nM in the test with P-P70S6K (T389); 31.6 to 1000 nM in the test with P-Akt (S473) (MDA-MB-468, 4 h).
